# Measurements reported in patent US6831190B1, “Guanidinomethyl cyclohexane carboxylic acid ester derivatives” (Teikoku Chemical Industries Co., Ltd., priority 1994, dated 2004).
# Like-named read-outs stand apart in the source and are kept apart here.
# How the values were obtained:
# Assay type in all cases: cell-based
# [1] = system: Helicobacter pylori ATCC 43504; assay: MIC, agar plating dilution (standard method of Japanese Chemotherapy Academy)
# Protocol: (§1) 1. Minimum Inhibitory Concentration (MIC) was measured in accordance with the standard method of Japanese Chemotherapy Academy (Chemotherapy, 29: 76-79, 1981). Sensitivity was measured with an agar plating dilution using Brain-Heart Infusion agar (Difco Co.) which was added 0.1% of cyclodextrin. […] of the solutions of the compounds which were obtained in examples of the present invention was prepared by dissolving in dimethylsulfoxide. […] Each of 1 ml of those prepared solutions was dispensed in share, after sterilization, 9 ml of sensitivity measuring medium which is kept at 50° C. was added to each, and they were sufficiently mixed. The mixture was used as a plate for measuring sensitivity. Brain Heart Infusion agar medium (Difco Co.), which was added 0.1% of cyclodextrin, was used as bacteria growing medium, and was cultured under microair at 37° C. for three days, and the number of bacteria thereof was adjusted to about 106/ml. This was used as a bacterial solution for inoculation. The medium was painted in each square about 2 cm with nichromic line loop. The medium was cultured under microair for three days at 37° C.
# [2] = system: Helicobacter pylori ATCC 43629; assay: as above
# Protocol: as §1
# [3] = system: Escherichia coli NIH JC-2; assay: MIC, standard method of Japanese Chemotherapy Academy; details: Objected Strain 3: Escherichia coli NIH JC-2
# Protocol: 1. Minimum Inhibitory Concentration (MIC) was measured in accordance with the standard method of Japanese Chemotherapy Academy (Chemotherapy, 29: 76-79, 1981).
# [4] = Objected Strain 1: Helicobacter pylori ATCC 43504
# [5] = Objected Strain 2: Helicobacter pylori ATCC 43629
# [6] = ATCC43504, Objected Strain 1: Helicobacter pylori ATCC 43504, read-out: MIC
# [7] = ATCC43629, Objected Strain 2: Helicobacter pylori ATCC 43629, read-out: MIC
compound,measurement,setting,value
"Cl.N=C(N)NC[C@H]1CC[C@H](C(=O)Oc2ccc(Cc3ccccc3)cc2)CC1 [Example 33, trans-4-guanidinomethyl cyclohexane carboxylic acid (4-benzylphenylester).hydrochloride]",MIC,[1]; [4],12.5 mg/L
same,MIC,[2]; [5],12.5 mg/L
same,MIC,[3],>25 mg/L
"CC(C)(c1ccccc1)c1ccc(OC(=O)[C@H]2CC[C@H](CNC(=N)N)CC2)cc1.Cl [Example 34, trans-4-guanidinomethyl cyclohexane carboxylic acid[4-(1-methyl-1-phenylethyl)phenylester].hydrochloride]",MIC,[1]; [4],25 mg/L
same,MIC,[2]; [5],25 mg/L
same,MIC,[3],>25 mg/L
"Cl.N=C(N)NC[C@H]1CC[C@H](C(=O)Oc2ccc(-c3ccccc3)cc2Cl)CC1 [Example 6, trans-4-guanidinomethyl cyclohexane carboxylic acid (2-chloro-4-phenylphenylester).hydrochloride]",MIC,[1]; [4],6.25 mg/L
same,MIC,[2]; [5],1.56 mg/L
same,MIC,[3],>25 mg/L
"Cl.N=C(N)NC[C@H]1CC[C@H](C(=O)Oc2cccc3ccccc23)CC1 [Compound 3, trans-4-guanidinomethyl cyclohexane carboxylic acid (1-naphthylester)hydrochloride, reference compound]",MIC,[1]; [4],>25 mg/L
same,MIC,[2]; [5],>25 mg/L
same,MIC,[3],>25 mg/L
"Cl.N=C(N)NC[C@H]1CC[C@H](C(=O)Oc2ccc(OCc3ccccc3)cc2)CC1 [Example 37, trans-4-guanidinomethyl cyclohexane carboxylic acid (4-benzyloxyphenylester).hydrochloride]",MIC,[1]; [4],12.5 mg/L
same,MIC,[2]; [5],3.13 mg/L
same,MIC,[3],>25 mg/L
"N=C(N)NCC1CCC(C(=O)Oc2ccc(C(=O)OCc3ccccc3)cc2)CC1 (stereo not drawn) [Compound 5, reference compound]",MIC,[1]; [6],12.5 mg/L
same,MIC,[2]; [7],6.25 mg/L
same,MIC,"[3]; NIHJC2, read-out: MIC",> 25 mg/L
"Cl.N=C(N)NC[C@H]1CC[C@H](C(=O)Oc2c(Cl)cc(-c3ccccc3)cc2Cl)CC1 [Example 13, trans-4-guanidinomethyl cyclohexane carboxylic acid (2,6-dichloro-4-phenylphenylester).hydrochloride]",MIC,[1]; [4],12.5 mg/L
same,MIC,[2]; [5],12.5 mg/L
same,MIC,[3],>25 mg/L
"Cl.N=C(N)NC[C@H]1CC[C@H](C(=O)Oc2c(Cl)cc(Cl)c3ccccc23)CC1 [Example 30, trans-4-guanidinomethyl cyclohexane carboxylic acid (2,4-dichloro-1-naphthyleter).hydrochloride]",MIC,[1]; [4],3.13 mg/L
same,MIC,[2]; [5],3.13 mg/L
same,MIC,[3],>25 mg/L
"Cl.N#Cc1ccc(-c2ccc(OC(=O)[C@H]3CC[C@H](CNC(=N)N)CC3)cc2)cc1 [Example 7, trans4-guanidinomethyl cyclohexane carboxylic acid [4-(4-cyanophenyl)phenylester].hydrochloride]",MIC,[1]; [4],3.13 mg/L
same,MIC,[2]; [5],3.13 mg/L
same,MIC,[3],>25 mg/L
"CC(C)(C)c1ccc(OC(=O)C2CCC(CNC(=N)N)CC2)cc1 (stereo not drawn) [Compound 7, reference compound]",MIC,[1]; [6],25 mg/L
same,MIC,[2]; [7],12.5 mg/L
same,MIC,"[3]; NIHJC2, read-out: MIC",> 25 mg/L
"Cl.N=C(N)NC[C@H]1CC[C@H](C(=O)Oc2ccc3ccccc3c2)CC1 [Compound 4, trans-4-guanidinomethyl cyclohexane carboxylic acid (2-naphthylester)hydrochloride, reference compound]",MIC,[1]; [4],25 mg/L
same,MIC,[2]; [5],25 mg/L
same,MIC,[3],>25 mg/L
"CCc1ccc(OC(=O)C2CCC(CNC(=N)N)CC2)cc1 (stereo not drawn) [Compound 6, reference compound]",MIC,[1]; [6],25 mg/L
same,MIC,[2]; [7],25 mg/L
same,MIC,"[3]; NIHJC2, read-out: MIC",> 25 mg/L
"Cl.N=C(N)NC[C@H]1CC[C@H](C(=O)Oc2c(Cl)cc(Cl)c3ccccc23)CC1 [Example 29, trans-4-guanidinomethyl cyclohexane carboxylic acid (2,4-dichloro-1-naphthylester).hydrochloride]",MIC,[1]; [4],6.25 mg/L
same,MIC,[2]; [5],12.5 mg/L
same,MIC,[3],>25 mg/L
"Cl.N=C(N)NC[C@H]1CC[C@H](C(=O)Oc2ccc(Oc3ccccc3)cc2)CC1 [Example 35, trans-4-guanidinomethyl cyclohexane carboxylic acid (4-phenoxyphenylester).hydrochloride]",MIC,[1]; [4],12.5 mg/L
same,MIC,[2]; [5],25 mg/L
same,MIC,[3],>25 mg/L
"Cl.N=C(N)NC[C@H]1CC[C@H](C(=O)Oc2c(Cl)cc(Cl)cc2-c2ccccc2)CC1 [Example 12, trans-4-guanidinomethyl cyclohexane carboxylic acid (2,4-dicloro-6-phenylphenylester).hydrochloride]",MIC,[1]; [4],3.13 mg/L
same,MIC,[2]; [5],3.13 mg/L
same,MIC,[3],>25 mg/L
"CS(=O)(=O)O.N=C(N)NC[C@H]1CC[C@H](C(=O)Oc2c(C(=O)OCc3ccc(F)cc3)cc(Br)cc2-c2ccccc2)CC1 [Example 11, trans-4-guanidinomethyl cyclohexane carboxylic acid [4-bromo-2-(4-fluorobenzyloxycarbonyl)-6-phenylphenylester].methanosulforate]",MIC,[1]; [4],6.25 mg/L
same,MIC,[2]; [5],6.25 mg/L
same,MIC,[3],>25 mg/L
"Cl.N=C(N)NC[C@H]1CC[C@H](C(=O)Oc2ccccc2-c2ccccc2)CC1 [Compound 2, trans4-guanidinomethyl cyclohexane carboxylic acid (2-phenylphenylester)hydrochloride, reference compound]",MIC,[1]; [4],25 mg/L
same,MIC,[2]; [5],25 mg/L
same,MIC,[3],>25 mg/L
"Cl.N=C(N)NC[C@H]1CC[C@H](C(=O)Oc2ccc(-c3ccc(Br)cc3)cc2)CC1 [Example 4, trans-4-guanidinomethyl cyclohexane carboxylic acid [4-(4-bromophenyl)phenylester].hydrochloride]",MIC,[1]; [4],1.56 mg/L
same,MIC,[2]; [5],0.39 mg/L
same,MIC,[3],>25 mg/L
"Cl.N=C(N)NC[C@H]1CC[C@H](C(=O)Oc2c(C(=O)OCc3ccccc3)cccc2-c2ccccc2)CC1 [Example 9, trans-4-guanidinomethyl cyclohexane carboxylic acid (2-benzyloxycarbonyl-6-phenylphenylester).hydrochloride]",MIC,[1]; [4],6.25 mg/L
same,MIC,[2]; [5],3.13 mg/L
same,MIC,[3],>25 mg/L
"CS(=O)(=O)O.N=C(N)NC[C@H]1CC[C@H](C(=O)Oc2c(C(=O)OCc3ccc(F)cc3)cccc2-c2ccccc2)CC1 [Example 10, trans-4-guanidinomethyl cyclohexane carboxylic acid [2-(4-fluorobenzyloxycarbonyl)-6-phenylphenylester].methansulfonate]",MIC,[1]; [4],6.25 mg/L
same,MIC,[2]; [5],6.25 mg/L
same,MIC,[3],>25 mg/L
"Cl.N=C(N)NC[C@H]1CC[C@H](C(=O)Oc2ccc(C3CCCCC3)cc2)CC1 [Example 32, trans-4-guanidinomethyl cyclohexane carboxylic acid (4-cyclohexyphenylester).hydrochloride]",MIC,[1]; [4],3.13 mg/L
same,MIC,[2]; [5],0.78 mg/L
same,MIC,[3],>25 mg/L
"Cl.N=C(N)NC[C@H]1CC[C@H](C(=O)Oc2ccc(-c3ccc(F)cc3)cc2)CC1 [Example 27, trans-4-guanidinomethyl cyclohexane carboxylic acid[4-(4-fluorophenyl)phenylester].hydrochloride]",MIC,[1]; [4],0.78 mg/L
same,MIC,[2]; [5],1.56 mg/L
same,MIC,[3],>25 mg/L
"Cl.N=C(N)NC[C@H]1CC[C@H](C(=O)Oc2ccc(C=Cc3ccccc3)cc2)CC1 [Example 38, trans-4-guanidinomethyl cyclohexane carboxylic acid (4-styrylphenylester).hydrochloride]",MIC,[1]; [4],0.78 mg/L
same,MIC,[2]; [5],0.39 mg/L
same,MIC,[3],>25 mg/L
"Cl.N=C(N)NC[C@H]1CC[C@H](C(=O)Oc2cccc(-c3ccccc3)c2)CC1 [Example 1, trans-4-guanidinomethyl cyclohexane carboxylic acid (3-phenylphenylester).hydrochloride]",MIC,[1]; [4],12.5 mg/L
same,MIC,[2]; [5],6.25 mg/L
same,MIC,[3],>25 mg/L
"Cl.N=C(N)NC[C@H]1CC[C@H](C(=O)Oc2ccc3cc(Br)ccc3c2)CC1 [Example 31, trans-4-guanidinomethyl cyclohexane carboxylic acid (6-bromo-2-naphthyl ester).hydrochloride]",MIC,[1]; [4],3.13 mg/L
same,MIC,[2]; [5],0.78 mg/L
same,MIC,[3],>25 mg/L
"Cl.N=C(N)NC[C@H]1CC[C@H](C(=O)Oc2ccc(-c3ccc([N+](=O)[O-])cc3)cc2)CC1 [Example 22, trans-4-guanidinomethyl cyclohexane carboxylic acid [4-(4-nitrophenyl)phenylester].hydrochloride]",MIC,[1]; [4],1.56 mg/L
same,MIC,[2]; [5],3.13 mg/L
same,MIC,[3],>25 mg/L
"COc1ccc(-c2ccc(OC(=O)[C@H]3CC[C@H](CNC(=N)N)CC3)cc2)cc1.Cl [Example 5, trans-4-guanidinomethyl cyclohexane carboxylic acid [4-(4-methoxyphenyl)phenylester].hydrochloride]",MIC,[1]; [4],3.13 mg/L
same,MIC,[2]; [5],1.56 mg/L
same,MIC,[3],>25 mg/L
